Assays:
Assay type in all cases: in vivo
Stellaria media [1] = assay: Post-emergence herbicidal activity against STEME; details: dosage 320 g/ha, rated visually after about 3 weeks; for pest or weed control at 320 g/ha: Stellaria media, 504 h
Procedure: (§1) [table] Seeds of monocotyledonous and dicotyledonous weeds and crop plants are placed in sandy loam in plastic or wood-fiber pots, covered with soil and cultivated in a greenhouse under controlled growth conditions. 2 to 3 weeks after sowing, the test plants are treated at the one-leaf stage. The compounds of the invention, formulated in the form of wettable powders (WP) or as emulsion concentrates (EC), are then sprayed onto the green parts of the plants as aqueous suspension or emulsion with addition of 0.5% additive at a water application rate of 600 l/ha (converted). After the test plants had been kept in the greenhouse under optimum growth conditions for about 3 weeks, the activity of the preparations is rated visually in comparison to untreated controls. For example, 100% activity=the plants have died, 0% activity=like control plants.

Viola tricolor [2] = assay: Post-emergence herbicidal activity against VIOTR; details: dosage 320 g/ha, rated visually after about 3 weeks; for pest or weed control at 320 g/ha: Viola tricolor, 504 h
Procedure: as §1

Pharbitis purpurea = assay: Post-emergence herbicidal activity against PHBPU; details: dosage 320 g/ha, rated visually after about 3 weeks; for pest or weed control at 320 g/ha: Ipomoea purpurea, 504 h
Procedure: as §1

Stellaria media [3] = assay: Pre-emergence herbicidal activity against STEME; details: dosage 80 g/ha, scored visually after about 3 weeks vs untreated controls; for pest or weed control at 80 g/ha: Stellaria media, 504 h
From the text: (§2) 1. Pre-emergence herbicidal action against harmful plants and crop plant compatibility Seeds of monocotyledonous and dicotyledonous weed plants and crop plants are placed in plastic or wood fiber pots and covered with soil. The compounds of the invention, formulated in the form of wettable powders (WP) or as emulsion concentrates (EC), are then applied onto the surface of the covering soil as aqueous suspension or emulsion with addition of 0.5% additive at a water application rate of 600 l/ha (converted). After the treatment, the pots are placed in a greenhouse and kept under good growth conditions for the trial plants. After about 3 weeks, the effect of the preparations is scored visually in comparison with untreated controls as percentages. For example, 100% activity=the plants have died, 0% activity=like control plants. [table]

Veronica persica [4] = assay: Pre-emergence herbicidal activity against VERPE; details: dosage 80 g/ha
From the text: as §2

Veronica persica [5] = assay: Post-emergence herbicidal activity against VERPE; details: dosage 320 g/ha, rated visually after about 3 weeks; for pest or weed control at 320 g/ha: Veronica persica, 504 h
Procedure: as §1

Abutilon theophrasti = assay: Post-emergence herbicidal activity against ABUTH; details: dosage 320 g/ha, rated visually after about 3 weeks; for pest or weed control at 320 g/ha: Abutilon theophrasti, 504 h
Procedure: as §1

Avena fatua [6] = assay: Pre-emergence herbicidal activity against AVEFA; details: dosage 80 g/ha, scored visually after about 3 weeks vs untreated controls; for pest or weed control at 80 g/ha: Avena fatua, 504 h, read-out: Pre-emergence herbicidal activity in % against AVEVA (AVEFA)
From the text: as §2

Echinochloa crus-galli [7] = assay: Post-emergence herbicidal activity against ECHCG; details: dosage 320 g/ha, rated visually after about 3 weeks; for pest or weed control at 320 g/ha: Echinochloa crus-galli, 504 h
Procedure: as §1

Alopecurus myosuroides [8] = assay: Post-emergence herbicidal activity against ALOMY; details: dosage 320 g/ha, rated visually after about 3 weeks; for pest or weed control at 320 g/ha: Alopecurus myosuroides, 504 h
Procedure: as §1

Setaria viridis [9] = assay: Post-emergence herbicidal activity against SETVI; details: dosage 320 g/ha, rated visually after about 3 weeks; for pest or weed control at 320 g/ha: Setaria viridis, 504 h
Procedure: as §1

Avena fatua [10] = assay: Post-emergence herbicidal activity against AVEFA; details: dosage 320 g/ha, rated visually after about 3 weeks; for pest or weed control at 320 g/ha: Avena fatua, 504 h
Procedure: as §1

Amaranthus retroflexus [11] = assay: Pre-emergence herbicidal activity against AMARE; details: dosage 80 g/ha, scored visually after about 3 weeks vs untreated controls
From the text: as §2

Alopecurus myosuroides [12] = assay: Pre-emergence herbicidal activity against ALOMY; details: dosage 80 g/ha, scored visually after about 3 weeks vs untreated controls
From the text: as §2

[13] = Pre-emergence herbicidal action against harmful plants (summary of the tables); details: 504 h, application rate of 0.08 kg of active substance or less per hectare, read-out: herbicidal action, pre-emergence treatment (very good activity)
From the text: as §2, with “plants.” for “plants. [table]”
As shown by the results, compounds according to the invention such as, for example, the compounds No. I-02 and other compounds from the tables (I-05, I-10, I-11, I-12, I-13, I-14, I-15, I-16, I-17, I-18, I-19, I-20, I-21, I-22, I-23, I-24, I-25, I-26, I-27, I-28, I-29) have, when used for pre-emergence treatment, very good activity (80% to 100% herbicidal action) against harmful plants such as Abutilon theophrasti, Alopecurus myosuroides, Amaranthus retroflexus, Avena fatua, Cyperus esculentus, Echinochloa crus-galli, Hordeum murinum, Lolium rigidum, Pharbitis purpurea, Polygonum convolvulus, Setaria viridis, Stellaria media, Veronica persica and Viola tricolor at an application rate of 0.08 kg of active substance or less per hectare.

Echinochloa crus-galli [14] = assay: Pre-emergence herbicidal activity against ECHCG; details: dosage 80 g/ha, scored visually after about 3 weeks vs untreated controls
From the text: as §2

Polygonum convolvulus [15] = assay: Pre-emergence herbicidal activity against POLCO; details: dosage 80 g/ha, scored visually after about 3 weeks vs untreated controls
From the text: as §2

Viola tricolor [16] = assay: Pre-emergence herbicidal activity against VIOTR; details: dosage 80 g/ha, scored visually after about 3 weeks vs untreated controls
From the text: as §2

Amaranthus retroflexus [17] = assay: Post-emergence herbicidal activity against AMARE; details: dosage 320 g/ha, rated visually after about 3 weeks
Procedure: as §1

Polygonum convolvulus [18] = assay: Post-emergence herbicidal activity against POLCO; details: dosage 320 g/ha, rated visually after about 3 weeks
Procedure: as §1

Setaria viridis [19] = assay: Pre-emergence herbicidal activity against SETVI; details: dosage 80 g/ha, scored visually after about 3 weeks vs untreated controls
From the text: as §2

Lolium rigidum [20] = assay: Pre-emergence herbicidal activity against LOLRI; details: dosage 80 g/ha, scored visually after about 3 weeks vs untreated controls
From the text: as §2

Hordeum murinum [21] = assay: Pre-emergence herbicidal activity against HORMU; details: dosage 80 g/ha
From the text: as §2

Hordeum murinum [22] = assay: Post-emergence herbicidal activity against HORMU; details: dosage 320 g/ha, rated visually after about 3 weeks
Procedure: as §1

Lolium rigidum [23] = assay: Post-emergence herbicidal activity against LOLRI; details: dosage 320 g/ha, rated visually after about 3 weeks
Procedure: as §1

C=CC1(C(=O)N[C@@H]2CO[C@H](C(=O)NC)C2)CC(c2cc(F)cc(F)c2)=NO1 (relative stereo) [Example I-02, 3-(3,5-difluorophenyl)-N-[cis-5-(methylcarbamoyl)tetrahydrofuran-3-yl]-5-vinyl-4H-isoxazole-5-carboxamide]
pest or weed control at 320 g/ha (Stellaria media [1]): 90% | pest or weed control at 320 g/ha (Viola tricolor [2]): 80% | pest or weed control at 320 g/ha (Pharbitis purpurea): 90% | pest or weed control at 80 g/ha (Stellaria media [3]): 100% | pest or weed control at 80 g/ha (Veronica persica [4]; Veronica persica, 504 h): 90% | pest or weed control at 320 g/ha (Veronica persica [5]): 80% | pest or weed control at 320 g/ha (Abutilon theophrasti): 80% | pest or weed control at 80 g/ha (Avena fatua [6]): 100% | pest or weed control at 320 g/ha (Echinochloa crus-galli [7]): 80% | pest or weed control at 320 g/ha (Alopecurus myosuroides [8]): 100% | pest or weed control at 320 g/ha (Setaria viridis [9]): 90% | pest or weed control at 320 g/ha (Avena fatua [10]): 90% | pest or weed control at 80 g/ha (Amaranthus retroflexus [11]; Amaranthus retroflexus, 504 h): 100% | pest or weed control at 80 g/ha (Alopecurus myosuroides [12]; Alopecurus myosuroides, 504 h): 90% | pest or weed control at 80 g/ha [13]: 80 to 100% | pest or weed control at 80 g/ha (Echinochloa crus-galli [14]; Echinochloa crus-galli, 504 h): 100%

CNC(=O)[C@@H]1C[C@H](NC(=O)C2(C)CC(c3cc(F)cc(F)c3)=NO2)CO1 (relative stereo) [Example I-05, 3-(3,5-difluorophenyl)-5-methyl-N-[cis-5-(methylcarbamoyl)tetrahydrofuran-3-yl]-4H-isoxazole-5-carboxamide]
pest or weed control at 80 g/ha (Polygonum convolvulus [15]; Fallopia convolvulus, 504 h): 90% | pest or weed control at 320 g/ha (Stellaria media [1]): 80% | pest or weed control at 320 g/ha (Viola tricolor [2]): 80% | pest or weed control at 320 g/ha (Pharbitis purpurea): 80% | pest or weed control at 80 g/ha (Stellaria media [3]): 80% | pest or weed control at 80 g/ha (Viola tricolor [16]; Viola tricolor, 504 h): 100% | pest or weed control at 320 g/ha (Veronica persica [5]): 80% | pest or weed control at 320 g/ha (Abutilon theophrasti): 80% | pest or weed control at 80 g/ha (Avena fatua [6]): 100% | pest or weed control at 320 g/ha (Echinochloa crus-galli [7]): 90% | pest or weed control at 320 g/ha (Amaranthus retroflexus [17]; Amaranthus retroflexus, 504 h): 80% | pest or weed control at 320 g/ha (Polygonum convolvulus [18]; Fallopia convolvulus, 504 h): 80% | pest or weed control at 320 g/ha (Alopecurus myosuroides [8]): 90% | pest or weed control at 320 g/ha (Setaria viridis [9]): 80% | pest or weed control at 320 g/ha (Avena fatua [10]): 80% | pest or weed control at 80 g/ha (Setaria viridis [19]; Setaria viridis, 504 h): 90% | pest or weed control at 80 g/ha [13]: 80 to 100%

C=CC1(C(=O)NC2COC(C(=O)NC(C)CC(=O)OCC)C2)CC(c2cc(F)cc(F)c2)=NO1 (centres unmarked) [Example I-22]
Pre-emergence herbicidal activity in % against LOLRI (Lolium rigidum [20]): 100% | Pre-emergence herbicidal activity in % against POLCO (Polygonum convolvulus [15]): 100% | Post-emergence herbicidal activity in % against STEME (Stellaria media [1]): 80% | Post-emergence herbicidal activity in % against VIOTR (Viola tricolor [2]): 80% | Post-emergence herbicidal activity in % against PHBPU (Pharbitis purpurea): 90% | Pre-emergence herbicidal activity in % against STEME (Stellaria media [3]): 90% | Pre-emergence herbicidal activity in % against VERPE (Veronica persica [4]): 100% | Pre-emergence herbicidal activity in % against HORMU (Hordeum murinum [21]): 100% | Post-emergence herbicidal activity in % against HORMU (Hordeum murinum [22]): 100% | Pre-emergence herbicidal activity in % against VIOTR (Viola tricolor [16]): 100% | Post-emergence herbicidal activity in % against VERPE (Veronica persica [5]): 80% | Post-emergence herbicidal activity in % against ABUTH (Abutilon theophrasti): 80% | Pre-emergence herbicidal activity in % against AVEVA (AVEFA) (Avena fatua [6]): 100% | Post-emergence herbicidal activity in % against LOLRI (Lolium rigidum [23]): 100% | Post-emergence herbicidal activity in % against ECHCG (Echinochloa crus-galli [7]): 100% | Post-emergence herbicidal activity in % against AMARE (Amaranthus retroflexus [17]): 90% | Post-emergence herbicidal activity in % against POLCO (Polygonum convolvulus [18]): 80% | Post-emergence herbicidal activity in % against ALOMY (Alopecurus myosuroides [8]): 100% | Post-emergence herbicidal activity in % against SETVI (Setaria viridis [9]): 90% | Post-emergence herbicidal activity in % against AVEFA (Avena fatua [10]): 100% | Pre-emergence herbicidal activity in % against AMARE (Amaranthus retroflexus [11]): 100% | Pre-emergence herbicidal activity in % against SETVI (Setaria viridis [19]): 100% | Pre-emergence herbicidal activity in % against ALOMY (Alopecurus myosuroides [12]): 100%

CN(C)NC(=O)[C@@H]1C[C@H](NC(=O)[C@@]2(C)CC(c3cc(F)cc(F)c3)=NO2)CO1 [Example I-26]
Pre-emergence herbicidal activity in % against LOLRI (Lolium rigidum [20]): 100% | Pre-emergence herbicidal activity in % against POLCO (Polygonum convolvulus [15]): 90% | Post-emergence herbicidal activity in % against STEME (Stellaria media [1]): 100% | Post-emergence herbicidal activity in % against VIOTR (Viola tricolor [2]): 90% | Post-emergence herbicidal activity in % against PHBPU (Pharbitis purpurea): 90% | Pre-emergence herbicidal activity in % against STEME (Stellaria media [3]): 100% | Pre-emergence herbicidal activity in % against VERPE (Veronica persica [4]): 80% | Pre-emergence herbicidal activity in % against HORMU (Hordeum murinum [21]): 90% | Post-emergence herbicidal activity in % against HORMU (Hordeum murinum [22]): 100% | Pre-emergence herbicidal activity in % against VIOTR (Viola tricolor [16]): 80% | Post-emergence herbicidal activity in % against VERPE (Veronica persica [5]): 80% | Post-emergence herbicidal activity in % against ABUTH (Abutilon theophrasti): 80% | Pre-emergence herbicidal activity in % against AVEVA (AVEFA) (Avena fatua [6]): 90% | Post-emergence herbicidal activity in % against LOLRI (Lolium rigidum [23]): 100% | Post-emergence herbicidal activity in % against ECHCG (Echinochloa crus-galli [7]): 100% | Post-emergence herbicidal activity in % against AMARE (Amaranthus retroflexus [17]): 80% | Post-emergence herbicidal activity in % against POLCO (Polygonum convolvulus [18]): 80% | Post-emergence herbicidal activity in % against ALOMY (Alopecurus myosuroides [8]): 100% | Post-emergence herbicidal activity in % against SETVI (Setaria viridis [9]): 80% | Post-emergence herbicidal activity in % against AVEFA (Avena fatua [10]): 100% | Pre-emergence herbicidal activity in % against AMARE (Amaranthus retroflexus [11]): 100% | Pre-emergence herbicidal activity in % against SETVI (Setaria viridis [19]): 90% | Pre-emergence herbicidal activity in % against ALOMY (Alopecurus myosuroides [12]): 100% | Pre-emergence herbicidal activity in % against ECHCG (Echinochloa crus-galli [14]): 90%
